# Measurements as given in the supplement of paper PMC10307832.
# Columns and labels:
# Assay in all cases: relative viability (nuclei count vs DMSO), 5 days (fraction); higher = more cells survive
# Omipalisib + AZD7762 = compound: COc1ncc(-c2ccc3nccc(-c4ccnnc4)c3c2)cc1NS(=O)(=O)c1ccc(F)cc1F [Omipalisib] + NC(=O)Nc1cc(-c2cccc(F)c2)sc1C(=O)N[C@H]1CCCNC1 [AZD7762] (partner 0.2 µM)
# Method in brief: (§1)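 The day after seeding in 1536-well plates, lung cancer cell lines were treated by pin tool with a single drug, or with a fixed anchor-drug dose together with five library-drug doses (not always all listed) in √10 steps. After 5 days, a combined fix-and-stain solution (final 0.05% Triton X-100, 1% formaldehyde, 1 ug/ml Hoechst) was added. Nuclei counted on 4× images gave relative viability as treated counts over vehicle counts, reported as the median of duplicate plates.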
# Omipalisib + Dasatinib = compound: COc1ncc(-c2ccc3nccc(-c4ccnnc4)c3c2)cc1NS(=O)(=O)c1ccc(F)cc1F [Omipalisib] + Cc1nc(Nc2ncc(C(=O)Nc3c(C)cccc3Cl)s2)cc(N2CCN(CCO)CC2)n1 [Dasatinib] (partner 0.075 µM)
# Method in brief: as §1
# Omipalisib + Olaparib = compound: COc1ncc(-c2ccc3nccc(-c4ccnnc4)c3c2)cc1NS(=O)(=O)c1ccc(F)cc1F [Omipalisib] + O=C(c1cc(Cc2n[nH]c(=O)c3ccccc23)ccc1F)N1CCN(C(=O)C2CC2)CC1 [Olaparib] (partner 8 µM)
# Method in brief: as §1
# Omipalisib + Palbociclib = compound: COc1ncc(-c2ccc3nccc(-c4ccnnc4)c3c2)cc1NS(=O)(=O)c1ccc(F)cc1F [Omipalisib] + CC(=O)c1c(C)c2cnc(Nc3ccc(N4CCNCC4)cn3)nc2n(C2CCCC2)c1=O [Palbociclib] (partner 0.5 µM)
# Method in brief: as §1
# Omipalisib + Foretinib = compound: COc1ncc(-c2ccc3nccc(-c4ccnnc4)c3c2)cc1NS(=O)(=O)c1ccc(F)cc1F [Omipalisib] + COc1cc2c(Oc3ccc(NC(=O)C4(C(=O)Nc5ccc(F)cc5)CC4)cc3F)ccnc2cc1OCCCN1CCOCC1 [Foretinib] (partner 0.25 µM)
# Method in brief: as §1
# Omipalisib + Phenformin = compound: COc1ncc(-c2ccc3nccc(-c4ccnnc4)c3c2)cc1NS(=O)(=O)c1ccc(F)cc1F [Omipalisib] + N=C(N)NC(=N)NCCc1ccccc1 [Phenformin] (partner 250 µM)
# Method in brief: as §1
Cell Line,relative viability (Omipalisib + AZD7762; first compound 0.0003 µM),relative viability (Omipalisib + AZD7762; first compound 0.003 µM),relative viability (Omipalisib + AZD7762; first compound 0.03 µM),relative viability (Omipalisib + Dasatinib; first compound 0.0003 µM),relative viability (Omipalisib + Dasatinib; first compound 0.003 µM),relative viability (Omipalisib + Dasatinib; first compound 0.03 µM),relative viability (Omipalisib + Olaparib; first compound 0.0003 µM),relative viability (Omipalisib + Olaparib; first compound 0.003 µM),relative viability (Omipalisib + Olaparib; first compound 0.03 µM),relative viability (Omipalisib + Palbociclib; first compound 0.0003 µM),relative viability (Omipalisib + Palbociclib; first compound 0.003 µM),relative viability (Omipalisib + Palbociclib; first compound 0.03 µM),relative viability (Omipalisib + Foretinib; first compound 0.0003 µM),relative viability (Omipalisib + Foretinib; first compound 0.003 µM),relative viability (Omipalisib + Foretinib; first compound 0.03 µM),relative viability (Omipalisib + Phenformin; first compound 0.0003 µM),relative viability (Omipalisib + Phenformin; first compound 0.003 µM),relative viability (Omipalisib + Phenformin; first compound 0.03 µM)
201T,0.592,0.516,0.459,0.582,0.413,0.323,0.803,0.859,0.526,0.325,0.343,0.27,1.12,0.864,0.308,0.47,0.421,0.338
A-427,0.715,0.628,0.579,0.686,0.434,0.625,0.699,0.604,0.611,0.501,0.49,0.455,0.865,1.01,0.718,0.382,0.224,0.337
ABC-1,0.888,0.929,0.674,0.424,0.499,0.35,0.911,0.764,0.619,0.603,0.482,0.364,1.05,0.824,0.561,0.221,0.234,0.224
BEN,0.533,0.495,0.521,0.277,0.3,0.307,1.01,0.769,0.607,0.434,0.444,0.452,0.518,0.403,0.538,0.259,0.277,0.27
CAL-12T,0.705,0.906,0.615,0.53,0.241,0.0952,0.76,0.691,0.349,0.533,0.415,0.142,1.26,1.06,0.684,0.543,0.573,0.361
COR-L23,–,–,–,0.487,0.323,0.239,0.34,0.301,0.265,0.286,0.246,0.212,0.974,1.01,0.719,0.461,0.508,0.406
COR-L 105,–,–,–,0.301,0.287,0.186,0.596,0.708,0.569,0.406,0.432,0.415,1.17,1.01,0.896,0.468,0.458,0.289
ChaGo-K-1,0.899,0.811,0.836,0.657,0.583,0.473,0.455,0.38,0.399,0.853,0.843,0.708,0.852,0.75,0.715,0.486,0.401,0.406
EKVX,0.638,0.723,0.285,0.398,0.302,0.175,0.912,0.734,0.39,0.301,0.326,0.182,0.649,0.801,0.183,0.228,0.254,0.15
EMC-BAC-2,0.989,0.719,0.515,0.261,0.231,0.21,0.391,0.407,0.252,0.441,0.38,0.311,0.91,0.637,0.482,0.476,0.368,0.334
EPLC-272H,0.149,0.213,0.167,0.387,0.239,0.113,0.712,0.36,0.131,0.311,0.306,0.225,0.574,0.388,0.196,0.294,0.253,0.193
H3255,1,0.869,0.566,0.336,0.325,0.257,0.559,0.526,0.409,0.365,0.313,0.285,0.731,0.669,0.494,0.365,0.39,0.269
HARA,0.384,0.461,0.334,0.291,0.288,0.187,0.699,0.512,0.214,0.267,0.181,0.169,0.928,0.897,0.26,0.539,0.334,0.332
HCC-15,1.23,0.916,0.91,0.552,0.349,0.42,0.681,0.643,0.542,0.748,0.614,0.521,0.944,0.814,0.721,0.427,0.372,0.306
HCC-44,1,1.13,1.07,–,–,–,1.01,0.974,0.534,0.962,0.962,0.879,–,–,–,0.202,0.141,0.102
HCC-78,0.593,0.508,0.281,0.359,0.313,0.219,0.665,0.542,0.298,0.48,0.411,0.414,0.436,0.433,0.266,0.683,0.571,0.282
HCC-366,0.288,0.208,0.184,0.575,0.2,0.179,0.327,0.137,0.0831,0.329,0.202,0.0493,0.849,0.772,0.189,0.625,0.263,0.181
HCC-827,0.239,0.213,0.143,0.194,0.233,0.147,0.593,0.6,0.243,0.471,0.381,0.266,1.03,0.803,0.288,0.402,0.343,0.271

Cell Line,relative viability (Omipalisib + AZD7762; first compound 0.0003 µM),relative viability (Omipalisib + AZD7762; first compound 0.003 µM),relative viability (Omipalisib + AZD7762; first compound 0.03 µM),relative viability (Omipalisib + Dasatinib; first compound 0.0003 µM),relative viability (Omipalisib + Dasatinib; first compound 0.003 µM),relative viability (Omipalisib + Dasatinib; first compound 0.03 µM),relative viability (Omipalisib + Olaparib; first compound 0.0003 µM),relative viability (Omipalisib + Olaparib; first compound 0.003 µM),relative viability (Omipalisib + Olaparib; first compound 0.03 µM),relative viability (Omipalisib + Palbociclib; first compound 0.0003 µM),relative viability (Omipalisib + Palbociclib; first compound 0.003 µM),relative viability (Omipalisib + Palbociclib; first compound 0.03 µM),relative viability (Omipalisib + Foretinib; first compound 0.0003 µM),relative viability (Omipalisib + Foretinib; first compound 0.003 µM),relative viability (Omipalisib + Foretinib; first compound 0.03 µM),relative viability (Omipalisib + Phenformin; first compound 0.0003 µM),relative viability (Omipalisib + Phenformin; first compound 0.003 µM),relative viability (Omipalisib + Phenformin; first compound 0.03 µM)
HOP-62,0.532,0.55,0.438,0.629,0.458,0.27,0.264,0.548,0.486,0.468,0.426,0.292,1.09,1.1,0.946,0.659,0.718,0.639
LC-2-ad,0.855,0.762,0.464,0.503,0.47,0.168,0.779,0.796,0.639,0.488,0.458,0.299,0.961,0.743,0.411,0.438,0.368,0.258
LCLC-97TM1,0.158,0.36,0.116,0.883,0.74,0.472,0.383,0.291,0.0739,0.202,0.14,0.0751,0.934,0.468,0.189,0.38,0.338,0.159
LCLC-103H,0.747,0.623,0.402,0.467,0.326,0.167,0.781,0.726,0.397,0.481,0.479,0.356,0.676,0.418,0.236,0.319,0.29,0.174
LK-2,0.382,0.148,0.134,0.231,0.151,0.169,0.747,0.29,0.238,0.421,0.203,0.225,0.832,0.553,0.484,0.532,0.128,0.144
LOU-NH91,0.772,0.566,0.515,0.521,0.381,0.355,0.909,0.852,0.617,0.586,0.536,0.52,0.901,0.838,0.564,0.738,0.522,0.504
NCI-H520,–,–,–,0.159,0.162,0.131,0.295,0.294,0.139,0.203,0.152,0.145,0.742,0.441,0.226,0.405,0.209,0.2
NCI-H596,0.966,0.546,0.479,0.618,0.44,0.295,0.639,0.604,0.402,–,–,–,0.559,0.485,0.304,0.692,0.445,0.387
NCI-H661,–,–,–,0.822,0.573,0.312,0.744,0.659,0.604,0.403,0.363,0.313,1.06,0.999,0.783,0.264,0.264,0.224
NCI-H1650,–,–,–,0.326,0.237,0.189,0.774,0.807,0.576,0.274,0.29,0.261,1.19,0.968,0.656,0.371,0.257,0.168
NCI-H1792,0.467,0.347,0.165,0.566,0.521,0.21,0.382,0.0789,0.0824,0.636,0.424,0.27,–,–,–,0.351,0.115,0.0784
NCI-H2009,–,–,–,0.272,0.215,0.157,0.705,0.511,0.378,0.204,0.176,0.179,1.15,1.07,0.922,0.511,0.487,0.316
NCI-H2023,–,–,–,0.446,0.213,0.114,0.428,0.414,0.185,0.383,0.213,0.0832,0.908,0.433,0.233,0.379,0.275,0.164
NCI-H2228,–,–,–,0.43,0.275,0.133,0.698,0.441,0.179,0.839,0.47,0.234,0.957,0.74,0.25,0.258,0.142,0.122
SK-LU-1,–,–,–,0.175,0.121,0.109,0.455,0.304,0.366,0.387,0.329,0.306,0.869,0.662,0.479,0.47,0.299,0.273
SK-MES-1,–,–,–,0.316,0.174,0.136,0.674,0.52,0.26,0.273,0.271,0.261,0.73,0.461,0.344,0.66,0.618,0.428
SW 1573,–,–,–,0.165,0.331,0.101,0.319,0.332,0.203,0.335,0.325,0.191,0.693,0.595,0.401,0.238,0.227,0.169
UMC-11,–,–,–,0.445,0.455,0.422,0.332,0.548,0.376,0.332,0.272,0.299,1.04,0.803,0.795,0.338,0.329,0.316
